From ChEMBL document CHEMBL3045679, “Microwave-assisted synthesis and pharmacological studies of novel 5-deazaalloxazine derivatives” (2012)
Values after ≈ are worked out from the molar mass of the structure shown. Active and inactive are the calls of the source. The calls are words filed in the database; no cut-off is given here.

Legend:
[1] = system: Klebsiella aerogenes; test: Antibacterial activity against Enterobacter aerogenes NCIM 2239 at 500 ug/disk after 24 hr by disk diffusion method; format: functional
[2] = system: Bacillus subtilis; test: Antibacterial activity against Bacillus subtilis NCIM 2063 at 1000 ug/disk after 24 hr by disk diffusion method; format: functional; conditions: NCIM 2063, 24 h, read-out: DIZ
[3] = system: Penicillium chrysogenum; test: Antifungal activity against Penicillium chrysogenum NCIM 707 at 500 ug/disk after 72 hr by disk diffusion method; format: functional
[4] = system: Aspergillus niger; test: Antifungal activity against Aspergillus niger NCIM 1196 after 72 hr by broth dilution assay; format: functional; conditions: NCIM 1196, 72 h
[5] = system: Bacillus cereus; test: Antibacterial activity against Bacillus cereus NCIM 2155 at 500 ug/disk after 24 hr by disk diffusion method; format: functional
[6] = system: Klebsiella aerogenes; test: Antibacterial activity against Enterobacter aerogenes NCIM 2239 at 1000 ug/disk after 24 hr by disk diffusion method; format: functional; conditions: NCIM 2239, 24 h, read-out: DIZ
[7] = system: Pseudomonas aeruginosa; test: Antibacterial activity against Pseudomonas aeruginosa NCIM 2200 at 1000 ug/disk after 24 hr by disk diffusion method; format: functional; conditions: NCIM 2200, 24 h, read-out: DIZ
[8] = system: Streptomyces albus; test: Antibacterial activity against Streptomyces albus NCIM 2178 at 500 ug/disk after 24 hr by disk diffusion method; format: functional, organism-based
[9] = system: Escherichia coli; test: Antibacterial activity against Escherichia coli NCIM 2065 after 24 hr by broth dilution assay; format: functional; conditions: NCIM 2065, 24 h
[10] = system: Klebsiella aerogenes; test: Antibacterial activity against Enterobacter aerogenes NCIM 2239 after 24 hr by broth dilution assay; format: functional; conditions: NCIM 2239, 24 h
[11] = system: Aspergillus flavus; test: Antifungal activity against Aspergillus flavus NCIM 535 at 1000 ug/disk after 72 hr by disk diffusion method; format: functional; conditions: NCIM 535, 72 h, read-out: DIZ
[12] = system: Bacillus subtilis; test: Antibacterial activity against Bacillus subtilis NCIM 2063 after 24 hr by broth dilution assay; format: functional; conditions: NCIM 2063, 24 h
[13] = system: Bacillus subtilis; test: Antibacterial activity against Bacillus subtilis NCIM 2063 at 500 ug/disk after 24 hr by disk diffusion method; format: functional
[14] = system: Escherichia coli; test: Antibacterial activity against Escherichia coli NCIM 2065 at 1000 ug/disk after 24 hr by disk diffusion method; format: functional; conditions: NCIM 2065, 24 h, read-out: DIZ
[15] = system: Candida albicans; test: Antifungal activity against Candida albicans NCIM 3471 at 1000 ug/disk after 72 hr by disk diffusion method; format: functional
[16] = system: Pseudomonas aeruginosa; test: Antibacterial activity against Pseudomonas aeruginosa NCIM 2200 at 500 ug/disk after 24 hr by disk diffusion method; format: functional
[17] = system: Aspergillus flavus; test: Antifungal activity against Aspergillus flavus NCIM 535 at 500 ug/disk after 72 hr by disk diffusion method; format: functional
[18] = system: Escherichia coli; test: Antibacterial activity against Escherichia coli NCIM 2065 at 500 ug/disk after 24 hr by disk diffusion method; format: functional
[19] = system: Aspergillus niger; test: Antifungal activity against Aspergillus niger NCIM 1196 at 500 ug/disk after 72 hr by disk diffusion method; format: functional
[20] = system: Candida albicans; test: Antifungal activity against Candida albicans NCIM 3471 at 500 ug/disk after 72 hr by disk diffusion method; format: functional
[21] = system: Penicillium chrysogenum; test: Antifungal activity against Penicillium chrysogenum NCIM 707 at 1000 ug/disk after 72 hr by disk diffusion method; format: functional; conditions: NCIM 707, 72 h, read-out: DIZ
[22] = system: Rhodotorula mucilaginosa; test: Antifungal activity against Rhodotorula mucilaginosa NCIM 3174 after 72 hr by broth dilution assay; format: functional; conditions: NCIM 3174, 72 h
[23] = system: Bacillus cereus; test: Antibacterial activity against Bacillus cereus NCIM 2155 after 24 hr by broth dilution assay; format: functional; conditions: NCIM 2155, 24 h
[24] = system: Rhodotorula mucilaginosa; test: Antifungal activity against Rhodotorula mucilaginosa NCIM 3174 at 1000 ug/disk after 72 hr by disk diffusion method; format: functional
[25] = system: Rhodotorula mucilaginosa; test: Antifungal activity against Rhodotorula mucilaginosa NCIM 3174 at 500 ug/disk after 72 hr by disk diffusion method; format: functional
[26] = system: Aspergillus niger; test: Antifungal activity against Aspergillus niger NCIM 1196 at 1000 ug/disk after 72 hr by disk diffusion method; format: functional; conditions: NCIM 1196, 72 h, read-out: DIZ
[27] = system: Pseudomonas aeruginosa; test: Antibacterial activity against Pseudomonas aeruginosa NCIM 2200 after 24 hr by broth dilution assay; format: functional; conditions: NCIM 2200, 24 h
[28] = system: Lipomyces lipofer; test: Antifungal activity against Lipomyces lipofer NCIM 3252 at 1000 ug/disk after 72 hr by disk diffusion method; format: functional
[29] = system: Bacillus cereus; test: Antibacterial activity against Bacillus cereus NCIM 2155 at 1000 ug/disk after 24 hr by disk diffusion method; format: functional; conditions: NCIM 2155, 24 h, read-out: DIZ
[30] = system: Streptomyces albus; test: Antibacterial activity against Streptomyces albus NCIM 2178 at 1000 ug/disk after 24 hr by disk diffusion method; format: functional
[31] = system: Lipomyces lipofer; test: Antifungal activity against Lipomyces lipofer NCIM 3252 at 500 ug/disk after 72 hr by disk diffusion method; format: functional
[32] = system: Candida albicans; test: Antifungal activity against Candida albicans NCIM 3471 after 72 hr by broth dilution assay; format: functional; conditions: NCIM 3471, 72 h
[33] = system: Streptomyces albus; test: Antibacterial activity against Streptomyces albus NCIM 2178 after 24 hr by broth dilution assay; format: functional; conditions: NCIM 2178, 24 h
[34] = system: Lipomyces lipofer; test: Antifungal activity against Lipomyces lipofer NCIM 3252 after 72 hr by broth dilution assay; format: functional; conditions: NCIM 3252, 72 h

`COc1cccc2cc3c(=O)[nH]c(=O)[nH]c3nc12` was tested, and the “diameter of the inhibition zone (DIZ)” value [1] was “inactive”, the zone of inhibition at 1000 µg/disc [2] was 10 mm and the “diameter of the inhibition zone (DIZ)” value [3] was “inactive”. For the same compound, the MIC [4] was 125 µg/mL (≈ 514 µM), the “diameter of the inhibition zone (DIZ)” value [5] was “inactive” and the zone of inhibition at 1000 µg/disc [6] was 8 mm. For the same compound, the zone of inhibition at 1000 µg/disc [7] was 10 mm, the “diameter of the inhibition zone (DIZ)” value [8] was “inactive” and the MIC [9] was 7.8 µg/mL (≈ 32.1 µM). It also gave an MIC [10] of 62.5 µg/mL (≈ 257 µM), a zone of inhibition at 1000 µg/disc [11] of 8 mm and an MIC [12] of 62.5 µg/mL (≈ 257 µM). For the same compound, the “diameter of the inhibition zone (DIZ)” value [13] was “inactive”, the zone of inhibition at 1000 µg/disc [14] was 12 mm and the zone of inhibition at 1000 µg/disc ([15]; NCIM 3471, 72 h, read-out: DIZ) was 12 mm. For the same compound, the “diameter of the inhibition zone (DIZ)” value [16] was “inactive”, the “diameter of the inhibition zone (DIZ)” value [17] was “inactive” and the “diameter of the inhibition zone (DIZ)” value [18] was “inactive”. For the same compound, the “diameter of the inhibition zone (DIZ)” value [19] was “inactive”, the “diameter of the inhibition zone (DIZ)” value [20] was “inactive” and the zone of inhibition at 1000 µg/disc [21] was 8 mm. The MIC [22] was 31.2 µg/mL (≈ 128 µM), the MIC [23] was 31.5 µg/mL (≈ 130 µM) and the zone of inhibition at 1000 µg/disc ([24]; NCIM 3174, 72 h, read-out: DIZ) was 10 mm. For the same compound, the zone of inhibition at 500 µg/disc ([25]; NCIM 3174, 72 h, read-out: DIZ) was 8 mm, the zone of inhibition at 1000 µg/disc [26] was 11 mm and the MIC [27] was 62.5 µg/mL (≈ 257 µM). For the same compound, the “diameter of the inhibition zone (DIZ)” value [28] was “inactive”, the zone of inhibition at 1000 µg/disc [29] was 12 mm and the “diameter of the inhibition zone (DIZ)” value [30] was “inactive”. For the same compound, the “diameter of the inhibition zone (DIZ)” value [31] was “inactive” and the MIC [32] was 125 µg/mL (≈ 514 µM).

With `Cc1cccc2cc3c(=O)[nH]c(=S)[nH]c3nc12` the “diameter of the inhibition zone (DIZ)” value [1] was “inactive”, the zone of inhibition at 1000 µg/disc [2] was 12 mm and the “diameter of the inhibition zone (DIZ)” value [3] was “inactive”. The MIC [4] was 3.9 µg/mL (≈ 16 µM), the “diameter of the inhibition zone (DIZ)” value [5] was “inactive” and the zone of inhibition at 1000 µg/disc [6] was 10 mm. For the same compound, the zone of inhibition at 1000 µg/disc [7] was 12 mm, the “diameter of the inhibition zone (DIZ)” value [8] was “inactive” and the MIC [9] was 31.2 µg/mL (≈ 128 µM). It also gave an MIC [10] of 15.6 µg/mL (≈ 64.1 µM), a zone of inhibition at 1000 µg/disc [11] of 10 mm and an MIC [12] of 31.2 µg/mL (≈ 128 µM). The zone of inhibition at 500 µg/disc ([13]; NCIM 2063, 24 h, read-out: DIZ) was 9 mm, the zone of inhibition at 1000 µg/disc [14] was 11 mm and the “diameter of the inhibition zone (DIZ)” value [15] was “inactive”. For the same compound, the “diameter of the inhibition zone (DIZ)” value [16] was “inactive”, the “diameter of the inhibition zone (DIZ)” value [17] was “inactive” and the zone of inhibition at 500 µg/disc ([18]; NCIM 2065, 24 h, read-out: DIZ) was 8 mm. For the same compound, the zone of inhibition at 500 µg/disc ([19]; NCIM 1196, 72 h, read-out: DIZ) was 12 mm, the “diameter of the inhibition zone (DIZ)” value [20] was “inactive” and the zone of inhibition at 1000 µg/disc [21] was 9 mm. For the same compound, the MIC [23] was 31.2 µg/mL (≈ 128 µM), the “diameter of the inhibition zone (DIZ)” value [24] was “inactive” and the “diameter of the inhibition zone (DIZ)” value [25] was “inactive”. For the same compound, the zone of inhibition at 1000 µg/disc [26] was 16 mm, the MIC [33] was 125 µg/mL (≈ 514 µM) and the MIC [27] was 6.5 µg/mL (≈ 26.7 µM). For the same compound, the zone of inhibition at 1000 µg/disc ([28]; NCIM 3252, 72 h, read-out: DIZ) was 10 mm, the zone of inhibition at 1000 µg/disc [29] was 13 mm and the zone of inhibition at 1000 µg/disc ([30]; NCIM 2178, 24 h, read-out: DIZ) was 12 mm. The zone of inhibition at 500 µg/disc ([31]; NCIM 3252, 72 h, read-out: DIZ) was 8 mm and the MIC [34] was 125 µg/mL (≈ 514 µM).
